{"source": "patent US20230390319A1", "about": "“INTERFERON GENE STIMULATOR COMPOSITION COMPRISING INDOLIZINE DERIVATIVE AS ACTIVE INGREDIENT” (AJOU UNIVERSITY INDUSTRY-ACADEMIC COOPERATION FOUNDATION, priority 2020, published 2023)", "key": {"[1]": {"experiment": "PK profiles after IV and PO administration to BALB/c mice", "assay_type": "in vivo", "settings": "for MRT last: read-out: MRT(0-t); for MRT inf: read-out: MRT(0-∞)", "from_the_text": "The pharmacokinetics and oral bioavailability of Compound 42 were investigated in mice following single intravenous (IV) injection and oral administration (PO)."}, "[2]": {"test_system": "IRF3, STAT1", "experiment": "Western blot analysis of TBK, IRF3 and STAT1 activity", "assay_type": "cell-based", "settings": "induced by cGAMP, FIG. 5", "protocol": "Cells were cultured and lysed in RIPA buffer containing a protease and phosphatase inhibitor cocktail (Thermo Fisher Scientific) and benzonase nuclease (Sigma). After centrifugation, the supernatant was collected, and the amount of protein was measured using a BCA protein assay kit (Thermo Fisher Scientific). Cell lysates were analyzed by SDS-PAGE using an acrylamide gel. After SDS-PAGE, proteins were transferred to a PVDF membrane, blocked with 5% BSA, and then washed with TBST. The membrane was incubated with primary antibodies (anti-STING, anti-pSTING, anti-TBK, anti-pTBK, anti-IRF3, anti-pIRF3, anti-STAT1, anti-pSTAT1, and anti-actin) overnight at 4° C. After washing with TBST, the membrane was treated with HRP-conjugated secondary antibodies at room temperature for 1 hour. The membrane was washed with TBST and treated with ECL solution (Thermo Fisher Scientific). Chemical fluorescence images were taken with ChemiDOC (Bio-Rad)."}, "[3]": {"settings": "BALB/c, mouse, blood, po, 20 mg/kg, PO 20.0 mg/kg, individual animals"}, "[4]": {"settings": "BALB/c, mouse, blood, po, 20 mg/kg, PO 20.0 mg/kg, mean n=3"}, "[5]": {"settings": "IV 5.0 mg/kg, individual animals, 5 mg/kg"}, "[6]": {"settings": "PO 20.0 mg/kg, individual animals, 20 mg/kg"}}, "note": "Several values for one entry are separate records, joined by “and”; a condition that tells them apart may be missing. Identical values can stand only once. Like-named read-outs stand apart in the source and are kept apart here."}
{"smiles": "CC(=O)c1ccc(-c2cc(C(=O)c3ccc(C(F)(F)F)cc3)n3ccccc23)cc1", "note": "[Compound 42]", "values": [{"measurement": "concentration at 6 h", "setting": "[1]; BALB/c, mouse, blood, po, 20 mg/kg, PO 20 mg/kg, 6.00 h, individual animals 201-203, read-out: concentration in blood", "value": 98.7, "unit": "ng/mL"}, {"measurement": "concentration at 6 h", "setting": "[1]; BALB/c, mouse, blood, po, 20 mg/kg, PO 20 mg/kg, 6.00 h, mean, read-out: concentration in blood, Mean PO", "value": 111, "unit": "ng/mL"}, {"measurement": "concentration at 24 h", "setting": "[1]; BALB/c, mouse, blood, po, 20 mg/kg, PO 20 mg/kg, 24.00 h, individual animals 201-203, read-out: concentration in blood", "value": 39, "unit": "ng/mL"}, {"measurement": "concentration at 24 h", "setting": "[1]; BALB/c, mouse, blood, po, 20 mg/kg, PO 20 mg/kg, 24.00 h, mean, read-out: concentration in blood, Mean PO", "value": 42.4, "unit": "ng/mL"}, {"measurement": "AUC(0-t)", "setting": "[1]; BALB/c, mouse, blood, po, 20 mg/kg, PO 20.0 mg/kg, individual animals, read-out: AUC(0-t)", "value": 2100, "unit": "ng·h/mL"}, {"measurement": "AUC(0-inf)", "setting": "[1]; BALB/c, mouse, blood, po, 20 mg/kg, PO 20.0 mg/kg, individual animals, read-out: AUC(0-∞)", "value": 2750, "unit": "ng·h/mL"}, {"measurement": "Cmax", "setting": "[1]; BALB/c, mouse, blood, po, 20 mg/kg, PO 20.0 mg/kg, individual animals, read-out: Cmax", "value": 211, "unit": "ng/mL"}, {"measurement": "MRT last", "setting": "[1]; [3]", "value": 7.66, "unit": "h"}, {"measurement": "MRT inf", "setting": "[1]; [3]", "value": 15.5, "unit": "h"}, {"measurement": "half-life", "setting": "[1]; BALB/c, mouse, blood, po, 20 mg/kg, PO 20.0 mg/kg, individual animals, read-out: T1/2 (converted)", "value": 11.6, "unit": "h"}, {"measurement": "AUC(0-t)", "setting": "[1]; BALB/c, mouse, blood, po, 20 mg/kg, PO 20.0 mg/kg, mean n=3, read-out: AUC(0-t)", "value": 2320, "unit": "ng·h/mL"}, {"measurement": "AUC(0-inf)", "setting": "[1]; BALB/c, mouse, blood, po, 20 mg/kg, PO 20.0 mg/kg, mean n=3, read-out: AUC(0-∞)", "value": 3030, "unit": "ng·h/mL"}, {"measurement": "Cmax", "setting": "[1]; BALB/c, mouse, blood, po, 20 mg/kg, PO 20.0 mg/kg, mean n=3, read-out: Cmax", "value": 225, "unit": "ng/mL"}, {"measurement": "MRT last", "setting": "[1]; [4]", "value": 7.64, "unit": "h"}, {"measurement": "MRT inf", "setting": "[1]; [4]", "value": 15.4, "unit": "h"}, {"measurement": "half-life", "setting": "[1]; BALB/c, mouse, blood, po, 20 mg/kg, PO 20.0 mg/kg, mean n=3, read-out: T1/2 (converted)", "value": 11.6, "unit": "h"}, {"measurement": "AUC(0-inf)", "setting": "[1]; BALB/c, mouse, blood, po, 20 mg/kg, PO administration of 20 mpk, read-out: AUC∞", "value": 3030, "unit": "ng·h/mL"}, {"measurement": "Cmax", "setting": "[1]; BALB/c, mouse, blood, po, 20 mg/kg, PO administration of 20 mpk, read-out: Cmax", "value": 224, "unit": "ng/mL"}, {"measurement": "half-life", "setting": "[1]; BALB/c, mouse, blood, po, 20 mg/kg, PO administration of 20 mpk, read-out: half-life (converted)", "value": 11.6, "unit": "h"}, {"measurement": "Tmax", "setting": "[1]; BALB/c, mouse, blood, IV 5.0 mg/kg, mean n=3", "value": 0.083, "unit": "h"}, {"measurement": "Tmax", "setting": "[1]; BALB/c, mouse, blood, PO 20.0 mg/kg, individual animals", "value": 1, "unit": "h"}, {"measurement": "concentration in blood", "setting": "[1]; IV 5 mg/kg, 0.083 h, individual animals 101-103, 5 mg/kg", "value": "2724.650 ng/mI and 2922.650 ng/mI"}, {"measurement": "concentration in blood", "setting": "[1]; IV 5 mg/kg, 0.25 h, individual animals 101-103, 5 mg/kg", "value": "1228.390 ng/mI and 1506.240 ng/mI"}, {"measurement": "concentration in blood", "setting": "[1]; IV 5 mg/kg, 0.50 h, individual animals 101-103, 5 mg/kg", "value": "741.777 ng/mI and 916.427 ng/mI"}, {"measurement": "concentration in blood", "setting": "[1]; IV 5 mg/kg, 1.00 h, individual animals 101-103, 5 mg/kg", "value": "319.272 ng/mI and 350.728 ng/mI"}, {"measurement": "concentration in blood", "setting": "[1]; IV 5 mg/kg, 4.00 h, individual animals 101-103, 5 mg/kg", "value": "129.441 ng/mI and 94.754 ng/mI"}, {"measurement": "concentration in blood", "setting": "[1]; IV 5 mg/kg, 24.00 h, individual animals 101-103, 5 mg/kg", "value": "45.260 ng/mI and 30.044 ng/mI"}, {"measurement": "AUCINF_obs AUC(0-∞)", "setting": "[1]; [5]", "value": "4161.11 ng·h/mL and 3533.38 ng·h/mL"}, {"measurement": "AUClast AUC(0-t)", "setting": "[1]; [5]", "value": "3542.76 ng·h/mL and 3195.55 ng·h/mL"}, {"measurement": "C0", "setting": "[1]; [5]", "value": "4048.20 ng/mL and 4063.09 ng/mL"}, {"measurement": "Cl_obs Cl", "setting": "[1]; [5]", "value": "20.0267 mL/min/kg and 23.5847 mL/min/kg"}, {"measurement": "Cmax", "setting": "[1]; [5]", "value": "2724.65 ng/mL and 2922.65 ng/mL"}, {"measurement": "HL_Lambda_z T1/2", "setting": "[1]; [5]", "value": "9.47 h and 7.79 h"}, {"measurement": "MRTINF_obs MRT(0-∞)", "setting": "[1]; [5]", "value": "9.83 h and 6.90 h"}, {"measurement": "MRTlast MRT(0-t)", "setting": "[1]; [5]", "value": "4.97 h and 3.90 h"}, {"measurement": "Vss_obs Vss", "setting": "[1]; [5]", "value": "11.80918 L/kg and 9.76009 L/kg"}, {"measurement": "Vz_obs Vz", "setting": "[1]; [5]", "value": "16.41627 L/kg and 15.912 L/kg"}, {"measurement": "concentration in blood", "setting": "[1]; PO 20 mg/kg, 0.25 h, individual animals 201-203, 20 mg/kg", "value": "114.648 ng/mI and 79.841 ng/mI"}, {"measurement": "concentration in blood", "setting": "[1]; PO 20 mg/kg, 0.50 h, individual animals 201-203, 20 mg/kg", "value": "164.520 ng/mI and 165.563 ng/mI"}, {"measurement": "concentration in blood", "setting": "[1]; PO 20 mg/kg, 1.00 h, individual animals 201-203, 20 mg/kg", "value": "232.437 ng/mI and 230.000 ng/mI"}, {"measurement": "concentration in blood", "setting": "[1]; PO 20 mg/kg, 3.00 h, individual animals 201-203, 20 mg/kg", "value": "155.307 ng/mI and 179.295 ng/mI"}, {"measurement": "concentration in blood", "setting": "[1]; PO 20 mg/kg, 6.00 h, individual animals 201-203, 20 mg/kg", "value": "123.919 ng/mI and 111.651 ng/mI"}, {"measurement": "concentration in blood", "setting": "[1]; PO 20 mg/kg, 24.00 h, individual animals 201-203, 20 mg/kg", "value": "37.325 ng/mI and 50.885 ng/mI"}, {"measurement": "AUC(0-t)", "setting": "[1]; [6]", "value": "2406.25 ng·h/mL and 2448.08 ng·h/mL"}, {"measurement": "AUC(0-∞)", "setting": "[1]; [6]", "value": "2959.50 ng·h/mL and 3385.50 ng·h/mL"}, {"measurement": "Cmax", "setting": "[1]; [6]", "value": "232.44 ng/mL and 230.00 ng/mL"}, {"measurement": "F", "setting": "[1]; [6]", "value": "15.87% and 18.22% and 18.54%"}, {"measurement": "MRT(0-t)", "setting": "[1]; [6]", "value": "7.22 h and 8.04 h"}, {"measurement": "MRT(0-∞)", "setting": "[1]; [6]", "value": "13.12 h and 17.56 h"}, {"measurement": "T1/2", "setting": "[1]; [6]", "value": "10.27 h and 12.77 h"}, {"measurement": "F", "setting": "[1]; PO 20.0 mg/kg, mean n=3", "value": 17.55, "unit": "%"}, {"measurement": "phosphorylation of IRF3 and STAT1", "setting": "[2]", "value": "increased phosphorylation of IRF3 and phosphorylation of STAT1"}]}
